According to paper PMC5617480 (Oncotarget, 2017):

What was measured:
[1] = system: HTG21 (DNA, G4) GGGTTAGGGTTAGGGTTAGGG; test: fluorescent intercalator displacement (FID); conditions: thiazole orange displaced
A549 cells = system: A549 cells; set-up: method as in earlier work; conditions: A549, 48 h; ref [1]; cited from earlier work
Pu22 = system: Pu22; set-up: method as in earlier work; conditions: ref [1], cited from earlier work; for ctDNADC50/Pu22DC50: FID selectivity ratio; for Pu22DC50: FID
Hep-G2 cells = system: Hep-G2 cells; set-up: method as in earlier work; conditions: Hep-G2, 48 h; ref [1]; cited from earlier work
ds26 = system: ds26; set-up: method as in earlier work; conditions: ref [1], cited from earlier work; for ctDNADC50/ds26DC50: FID selectivity ratio; for ds26DC50: FID
[2] = system: HTG21 / G4-HTG21 human telomeric DNA; test: CD spectroscopy; format: binding; set-up: key to Extent of change at 290―295 nm (%): “—”represents no obvious changes in the peaks; conditions: DNA 10 μM, compound 20 μM
Method: We asked whether chiral platinum(II) complexes 4–6 have the ability to bind to G-quadruplex DNA. To address this, FRET assays, CD spectroscopy, G4-FID assays, and fluorescence titration analysis were performed. […] For G4-HTG21, the ^G4DC50 values of complexes 4–6 were 1.23, 1.26 and 0.99 μM, respectively; while, for G4-Pu27, the ^G4DC50 values were 1.01, 0.89, and 0.82 μM, respectively. In addition, the ^ctDNADC50/^G4DC50 ratio of the HTG21 and Pu27 G4s treated with complexes 4–6 was in the range of 50.54-90.65 and 71.56-110.67 folds, respectively. To further evaluate the binding ability of complexes 4–6 to Pu27 and HTG21G4s, CD spectroscopy and fluorescence titration analysis were performed. […] The quenching ability of complexes 4–6 to HTG21 and Pu27 G4 DNA fluorescence can be quantitatively estimated by their respective quenching constant (Kq), which was derived from the Stern-Volmer quenching equation. […] Finally, the selective binding of complexes 4–6 towards G4 DNA was analyzed by FRET-melting assays. […] In contrast, the ΔTm value for the F32T+H20M duplex DNA in the presence of complexes 4–6 was 1.18, 1.34, and 0.78 °C under the same conditions (Figure 4A). Altogether, our data indicated complexes 4–6, especially complex 6, is the best binder to G4 DNA, which caused DNA complex displaying the highest thermodynamic stability. […]
Supplementary Figure 21: CD spectra of Human Telomeric DNA (10 μM) in the absence of K+ (10 mM pH 7.35 Tris-
HCl) upon addition of compounds (20 μM). […]
Supplementary Figure 22: CD spectra of Human Telomeric G-quadruplex DNA (10 μM) in the presence of K + (TBS
buffer, containing 1% DMSO, 100 mM KCl, and 10 mM pH 7.35 Tris-HCl) upon addition of compounds (20 μM). […]

Pu27 G4 = test: Fluorescence titration (Stern-Volmer quenching); format: binding; conditions: Pu27 G4-DNA, compound 20 μM, 100 mM K+
Method: We asked whether chiral platinum(II) complexes 4–6 have the ability to bind to G-quadruplex DNA. To address this, FRET assays, CD spectroscopy, G4-FID assays, and fluorescence titration analysis were performed. […] For G4-HTG21, the ^G4DC50 values of complexes 4–6 were 1.23, 1.26 and 0.99 μM, respectively; while, for G4-Pu27, the ^G4DC50 values were 1.01, 0.89, and 0.82 μM, respectively. In addition, the ^ctDNADC50/^G4DC50 ratio of the HTG21 and Pu27 G4s treated with complexes 4–6 was in the range of 50.54-90.65 and 71.56-110.67 folds, respectively. To further evaluate the binding ability of complexes 4–6 to Pu27 and HTG21G4s, CD spectroscopy and fluorescence titration analysis were performed. […] The quenching ability of complexes 4–6 to HTG21 and Pu27 G4 DNA fluorescence can be quantitatively estimated by their respective quenching constant (Kq), which was derived from the Stern-Volmer quenching equation. […] Finally, the selective binding of complexes 4–6 towards G4 DNA was analyzed by FRET-melting assays. […] In contrast, the ΔTm value for the F32T+H20M duplex DNA in the presence of complexes 4–6 was 1.18, 1.34, and 0.78 °C under the same conditions (Figure 4A). Altogether, our data indicated complexes 4–6, especially complex 6, is the best binder to G4 DNA, which caused DNA complex displaying the highest thermodynamic stability.
Supplementary Figure 26: Fluorescence emission spectra of compounds (20 μM) in 100 mM K+ solution in the absence and
presence of G-quadruplex Pu27 with 4 (A), 5 (B) and 6 (C), respectively. […]

c-kit-2 = test: FID assay; format: binding; conditions: for c-kit-2DC50: FID; for ctDNADC50/c-kit-2DC50: FID selectivity ratio
[3] = G4-HTG21 (presence of K+), given with ↓
[4] = HTG21 (absence of K+), given with ↓

Row | Molecule | G4DC50 [1] | IC50 (A549 cells) | ctDNADC50/Pu22DC50 (Pu22) | Pu22DC50 (Pu22) | IC50 (Hep-G2 cells) | ctDNADC50/ds26DC50 (ds26) | ds26DC50 (ds26) | Extent of change at 250―265 nm (%) [2, 3] | Extent of change at 290―295 nm (%) [2, 3] | Extent of change at 290―295 nm (%) ([2]; HTG21 (absence of K+)) | Extent of change at 250―265 nm (%) [2, 4] | Extent of quenching (%) (Pu27 G4) | Kq (quenching constant, Stern-Volmer) (Pu27 G4) | c-kit-2DC50 (c-kit-2) | ctDNADC50/c-kit-2DC50 (c-kit-2)
1 | O=C(NCC(O)CO)c1cnc2c3c(cccc13)-c1ccccc1C2=O.[Cl-].[Cl-].[Pt+2] (racemic) [ligand 1, R/S-(±)-FOA] | 1.23 µM | 20.2 ± 0.5 µM | 1.88 | 33.97 µM | 32.9 ± 0.5 µM | 5.31 | 12.05 µM |  |  |  |  |  |  |  | 
2 | O=C(NC[C@@H](O)CO)c1cnc2c3c(cccc13)-c1ccccc1C2=O.[Cl-].[Cl-].[Pt+2] [ligand 2, R-(+)-FOA] | 1.26 µM | 24.1 ± 0.4 µM | 0.69 | 57.62 µM | 38.9 ± 1.3 µM | 2.77 | 14.41 µM |  |  |  |  |  |  |  | 
3 | O=C(NC[C@H](O)CO)c1cnc2c3c(cccc13)-c1ccccc1C2=O.[Cl-].[Cl-].[Pt+2] [ligand 3, S-(–)-FOA] | 0.99 µM | 20.4 ± 0.3 µM | 3.49 | 25.75 µM | 24.9 ± 0.4 µM | 11.40 | 7.88 µM |  |  |  |  |  |  |  | 
4 | cis-[PtCl2(R-(+)-FOA)] [complex 5] |  |  |  |  |  |  |  | 52.31% | 9.76% | — | 62.38% | 30.06% | 8.80×10^4 L·mol–1 | 3.08 µM | 20.68
5 | cis-[PtCl2(R/S-(±)-FOA)] [complex 4] |  |  |  |  |  |  |  | 50.08% | 16.44% | — | 73.35% | 32.54% | 1.02×10^5 L·mol–1 | 2.48 µM | 30.59
6 | cis-[PtCl2(S-(–)-FOA)] [complex 6] |  |  |  |  |  |  |  | 56.31% | 19.43% | — | 73.98% | 40.31% | 1.38×10^5 L·mol–1 | 4.78 µM | 18.98
